Source: patent US11247990B1, “Bicyclic fused pyridine compounds as inhibitors of TAM kinases” (ARRAY BIOPHARMA INC., priority 2017, dated 2022)
pIC50: −log10 of the molar value.

What was measured:
Conditions in all cases: averaged IC50
[1] = molecular target: His-tagged recombinant human AXL cytoplasmic domain (Homo sapiens (Human), UniProt P30530); test: AXL Enzyme Assay (LanthaScreen Eu Kinase Binding, TR-FRET)
Procedure: Compounds of Formula I were screened for their ability to inhibit AXL kinase using Invitrogen's LanthaScreen™ Eu Kinase Binding technology. […] After a 60-minute incubation at 22° C., the reaction was measured using a PerkinElmer EnVision multimode plate reader via TR-FRET dual wavelength detection, and the percent of control (POC) was calculated using a ratiometric emission factor. […] The POC values are fit to a 4 parameter logistic curve and the IC50 value is point where the curve crosses 50 POC.

[2] = molecular target: His-tagged recombinant human MER cytoplasmic domain (Homo sapiens (Human), UniProt Q12866); test: MER Enzyme Assay (LanthaScreen Eu Kinase Binding, TR-FRET)
In short: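 LanthaScreen Eu kinase binding (tracer displacement) assay with His-tagged human MER cytoplasmic domain, 60 min incubation at 22 °C. TR-FRET dual-wavelength emission ratio converted to percent of control; IC50 is where the 4-parameter logistic fit crosses 50 POC.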

[3] = molecular target: GST-tagged recombinant human TYRO3 kinase domain (Homo sapiens (Human), UniProt Q06418); test: TYRO3 Enzyme Assay (LanthaScreen Eu Kinase Binding, TR-FRET)
In short: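 LanthaScreen Eu binding (tracer displacement) format read by TR-FRET after 60 min at 22 °C. Emission ratio converted to percent of control; IC50 taken where a 4-parameter logistic fit crosses 50 POC.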

GST-tagged recombinant human TYRO3 kinase domain, sequence (Q06418 518-790): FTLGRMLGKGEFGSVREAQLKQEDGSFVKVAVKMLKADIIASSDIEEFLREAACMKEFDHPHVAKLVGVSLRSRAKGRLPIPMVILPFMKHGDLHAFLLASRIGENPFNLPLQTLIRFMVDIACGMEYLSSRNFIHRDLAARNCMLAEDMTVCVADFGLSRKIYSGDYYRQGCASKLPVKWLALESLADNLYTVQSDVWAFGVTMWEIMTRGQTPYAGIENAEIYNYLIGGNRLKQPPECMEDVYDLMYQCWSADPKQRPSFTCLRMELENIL
His-tagged recombinant human AXL cytoplasmic domain, sequence (P30530 473-894): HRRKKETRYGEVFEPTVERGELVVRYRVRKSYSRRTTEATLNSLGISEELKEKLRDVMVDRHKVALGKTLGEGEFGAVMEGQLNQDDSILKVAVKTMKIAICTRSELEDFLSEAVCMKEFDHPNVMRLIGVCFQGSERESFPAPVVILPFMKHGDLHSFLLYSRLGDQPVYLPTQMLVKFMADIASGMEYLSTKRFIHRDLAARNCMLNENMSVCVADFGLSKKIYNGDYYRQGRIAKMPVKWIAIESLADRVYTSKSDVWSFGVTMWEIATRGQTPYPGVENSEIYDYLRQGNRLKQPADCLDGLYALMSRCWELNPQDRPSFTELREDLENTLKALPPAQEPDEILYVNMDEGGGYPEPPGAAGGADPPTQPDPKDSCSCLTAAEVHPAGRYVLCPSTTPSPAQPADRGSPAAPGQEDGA
His-tagged recombinant human MER cytoplasmic domain, sequence (Q12866 527-999): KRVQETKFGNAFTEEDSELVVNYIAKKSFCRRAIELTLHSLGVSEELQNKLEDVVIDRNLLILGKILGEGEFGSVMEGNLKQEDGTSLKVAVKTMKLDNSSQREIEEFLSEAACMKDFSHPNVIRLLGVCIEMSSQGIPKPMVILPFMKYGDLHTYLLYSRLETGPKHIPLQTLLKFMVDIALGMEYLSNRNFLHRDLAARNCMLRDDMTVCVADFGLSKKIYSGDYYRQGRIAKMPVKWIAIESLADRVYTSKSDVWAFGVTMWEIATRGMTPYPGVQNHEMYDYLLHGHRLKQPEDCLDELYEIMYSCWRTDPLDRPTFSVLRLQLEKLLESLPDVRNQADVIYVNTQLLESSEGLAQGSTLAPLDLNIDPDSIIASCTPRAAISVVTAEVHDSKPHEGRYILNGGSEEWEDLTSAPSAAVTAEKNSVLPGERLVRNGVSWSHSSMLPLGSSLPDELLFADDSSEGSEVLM

`CCNc1cc2c(cn1)c(-c1cnn(C)c1)nn2[C@H]1CC[C@@H](Oc2cccc(C(F)(F)F)c2F)CC1` [Example 498, N-ethyl-1-((1s,4s)-4-(2-fluoro-3-(trifluoromethyl)phenoxy)cyclohexyl)-3-(1-methyl-1H-pyrazol-4-yl)-1H-pyrazolo[4,3-c]pyridin-6-amine] gave a pIC50 [1] of over 8.00, a pIC50 [2] of over 8.00 and a pIC50 [3] of 7.00 to 8.00.

`CNc1cc2c(cn1)c(-c1cnn(C)c1)nn2[C@H]1CC[C@@H](Oc2ccc(=O)[nH]c2C(F)(F)F)CC1` [Example 105, 5-(((1s,4s)-4-(3-(1-methyl-1H-pyrazol-4-yl)-6-(methylamino)-1H-pyrazolo[4,3-c]pyridin-1-yl)cyclohexyl)oxy)-6-(trifluoromethyl)pyridin-2(1H)-one] was tested, and the pIC50 [1] was over 8.00, the pIC50 [2] was over 8.00 and the pIC50 [3] was over 8.00.

Work on `CNc1cc2c(cn1)c(-c1cnn(C)c1)nn2[C@H]1CC[C@@H](Oc2ccccc2)[C@H](O)C1` [Example 471B, (1R,2R,5S)-5-(3-(1-methyl-1H-pyrazol-4-yl)-6-(methylamino)-1H-pyrazolo[4,3-c]pyridin-1-yl)-2-phenoxycyclohexan-1-ol] yielded a pIC50 [1] of over 8.00, a pIC50 [2] of over 8.00 and a pIC50 [3] of 7.00 to 8.00.

`CCNc1cc2c(cn1)c(N1CC[C@H](N)C1)nn2[C@H]1CC[C@@H](Oc2nccc(C(F)(F)F)c2F)CC1` [Example 493, 3-((S)-3-aminopyrrolidin-1-yl)-N-ethyl-1-((1s,4R)-4-((3-fluoro-4-(trifluoromethyl)pyridin-2-yl)oxy)cyclohexyl)-1H-pyrazolo[4,3-c]pyridin-6-amine] was tested, and the pIC50 [1] was over 8.00, the pIC50 [2] was over 8.00 and the pIC50 [3] was 7.00 to 8.00.

With `CNc1cc2c(cn1)c(-c1cnn(C(C)(C)C#N)c1)nn2[C@H]1CC[C@@H](Oc2cn(C)nc2C(F)(F)F)CC1` [Example 163, 2-methyl-2-(4-(1-((1s,4s)-4-((1-methyl-3-(trifluoromethyl)-1H-pyrazol-4-yl)oxy)cyclohexyl)-6-(methylamino)-lH-pyrazolo[4,3-c]pyridin-3-yl)-1H-pyrazol-1-yl)propanenitrile] the pIC50 [1] was over 8.00, the pIC50 [2] was over 8.00 and the pIC50 [3] was over 8.00.

`CCNc1cc2c(cn1)c(C1CCNC1)nn2[C@H]1CC[C@@H](Oc2nccc(C(F)(F)F)c2F)CC1` (stereo partly shown) [Example 320, N-ethyl-1-((1s,4s)-4-((3-fluoro-4-(trifluoromethyl)pyridin-2-yl)oxy)cyclohexyl)-3-(pyrrolidin-3-yl)-1H-pyrazolo[4,3-c]pyridin-6-amine] was tested, and the pIC50 [1] was over 8.00, the pIC50 [2] was over 8.00 and the pIC50 [3] was 7.00 to 8.00.

Compound `CNc1cc2c(cn1)c(-c1cnn(C)c1)nn2[C@H]1CC[C@@H](Oc2cn(C)nc2C(F)(F)F)CC1` [Example 162, N-methyl-3-(1-methyl-1H-pyrazol-4-yl)-1-((1s,4s)-4-((1-methyl-3-(trifluoromethyl)-1H-pyrazol-4-yl)oxy)cyclohexyl)-1H-pyrazolo[4,3-c]pyridin-6-amine] has a pIC50 [1] of over 8.00, a pIC50 [2] of over 8.00 and a pIC50 [3] of over 8.00.

Work on `CNc1cc2c(cn1)c(-c1ccc(S(C)(=O)=O)cc1)nn2[C@H]1CC[C@@H](Oc2cn(C)nc2C(F)(F)F)CC1` [Example 284, N-methyl-1-((1s,4s)-4-((1-methyl-3-(trifluoromethyl)-1H-pyrazol-4-yl)oxy)cyclohexyl)-3-(4-(methylsulfonyl)phenyl)-1H-pyrazolo[4,3-c]pyridin-6-amine] yielded a pIC50 [1] of over 8.00, a pIC50 [2] of over 8.00 and a pIC50 [3] of over 8.00.

`CCNc1cc2c(cn1)c(-c1ccc(CN3CCN(C)CC3)cc1)nn2[C@H]1CC[C@@H](Oc2nccc(C(F)(F)F)c2F)CC1` [Example 261, N-ethyl-1-((1s,4s)-4-((3-fluoro-4-(tnfluoromethyl)pyridin-2-yl)oxy)cyclohexyl)-3-(4-((4-methylpiperazin-1-yl)methyl)phenyl)-1H-pyrazolo[4,3-c]pyridin-6-amine] showed a pIC50 [1] of over 8.00, a pIC50 [2] of over 8.00 and a pIC50 [3] of 7.00 to 8.00.

In the case of `CCNc1cc2c(cn1)c(-c1cnn(C[C@H](O)CO)c1)nn2[C@H]1CC[C@@H](Oc2cccnc2C(F)(F)F)CC1` [Example 208, (S)-3-(4-(6-(ethylamino)-1-((1s,4R)-4-((2-(trifluoromethyl)pyridin-3-yl)oxy)cyclohexyl)-1H-pyrazolo[4,3-c]pyridin-3-yl)-1H-pyrazol-1-yl)propane-1,2-diol], the pIC50 [1] was over 8.00, the pIC50 [2] was over 8.00 and the pIC50 [3] was over 8.00.

For `CNc1cc2c(cn1)c(-c1cnn(C)c1)nn2[C@H]1CC[C@@H](Oc2cccnc2C(C)C)CC1` [Example 165, 1-((1 s,4s)-4-((2-isopropylpyridin-3-yl)oxy)cyclohexyl)-N-methyl(1-methyl-1H-pyrazol-4-yl)-1H-pyrazolo[4,3-c]pyridin-6-amine], the pIC50 [1] was over 8.00, the pIC50 [2] was over 8.00 and the pIC50 [3] was 7.00 to 8.00.

With `CCNc1cc2c(cn1)c(N1CCN(C)CC1)nn2[C@H]1CC[C@@H](Oc2nccc(C(F)(F)F)c2F)CC1` [Example 331, N-ethyl-1-((1s,4s)-4((3-fluoro-4-(trifluoromethyl)pyridin-2-yl)oxy)cyclohexyl)-3-(4-methylpiperazin-1-yl)-1H-pyrazolo[4,3-c]pyridin-6-amine] the pIC50 [1] was over 8.00, the pIC50 [2] was over 8.00 and the pIC50 [3] was over 8.00.

In the case of `CCNc1cc2c(cn1)c(N1CC[C@@H](N)C1)nn2[C@H]1CC[C@@H](Oc2nccc(C(F)(F)F)c2F)CC1` [Example 494, 3-((R)-3-aminopyrrolidin-1-yl)-N-ethyl-1-((1s,4S)-4-((3-fluoro-4-(trifluoromethyl)pyridin-2-yl)oxy)cyclohexyl)-1H-pyrazolo[4,3-c]pyridin-6-amine], the pIC50 [1] was over 8.00, the pIC50 [2] was over 8.00 and the pIC50 [3] was 7.00 to 8.00.

In the case of `CCNc1cc2c(cn1)c(C1CCN(C(C)C)CC1)nn2[C@H]1CC[C@@H](Oc2nccc(C(F)(F)F)c2F)CC1` [Example 326, N-ethyl-1-((1s,4s)-4-((3-fluoro-4-(trifluoromethyl)pyridin-2-yl)oxy)cyclohexyl)-3-(1-isopropylpiperidin-4-yl)-1H-pyrazolo[4,3-c]pyridin-6-amine], the pIC50 [1] was over 8.00, the pIC50 [2] was over 8.00 and the pIC50 [3] was 7.00 to 8.00.

In the case of `CNc1cc2c(cn1)c(-c1cnn(C)c1)nn2[C@H]1CC[C@@H](Oc2nccnc2C(F)(F)F)CC1` [Example 171, N-methyl-3-(1-methyl-1H-pyrazol-4-yl)-1-((1s,4s)-4-((3-(trifluoromethyl)pyrazin-2-yl)oxy)cyclohexyl)-1H-pyrazolo[4,3-c]pyridin-6-amine], the pIC50 [1] was over 8.00, the pIC50 [2] was over 8.00 and the pIC50 [3] was over 8.00.

For `CNc1cc2c(cn1)c(-c1cnn(C)c1)nn2[C@H]1CC[C@@H](Oc2cccnc2C(F)(F)F)CC1` [Example 137, N-methyl-3-(1-methyl-1H-pyrazol-4-yl)-1-((1s,4s)-4-((2-(trifluoromethyl)pyridin-3-yl)oxy)cyclohexyl)-1H-pyrazolo[4,3-c]pyridin-6-amine], the pIC50 [1] was over 8.00, the pIC50 [2] was over 8.00 and the pIC50 [3] was over 8.00.

`Cn1cc(-c2nn([C@H]3CC[C@@H](Oc4ccc(=O)n(C)n4)CC3)c3cc(N)ncc23)cn1` [Example 75, 6-(((1s,4s)-4-(6-amino-3-(1-methyl-1H-pyrazol-4-yl)-1H-pyrazolo[4,3-c]pyridin-1-yl)cyclohexyl)oxy)-2-methylpyridazin-3(2H)-one] gave a pIC50 [1] of 5.00 to 6.00, a pIC50 [2] of 5.00 to 6.00 and a pIC50 [3] of 5.00 to 6.00.

In the case of `CCNc1cc2c(cn1)c(-c1ccc3c(c1)CNC3=O)nn2[C@H]1CC[C@@H](Oc2cn(C)nc2C(F)(F)F)CC1` [Example 287], the pIC50 [1] was over 8.00, the pIC50 [2] was over 8.00 and the pIC50 [3] was over 8.00.

With `CCNc1cc2c(cn1)c(N1CC[C@H](N(C)C)C1)nn2[C@H]1CC[C@@H](Oc2nccc(C(F)(F)F)c2F)CC1` [Example 335, 3-((S)-3-(dimethylamino)pyrrolidin-1-yl)-N-ethyl-1-((1s,4R)-4-((3-fluoro-4-(trifluoromethyl)pyridin-2-yl)oxy)cyclohexyl)-1H-pyrazolo[4,3-c]pyridin-6-amine] the pIC50 [1] was over 8.00, the pIC50 [2] was over 8.00 and the pIC50 [3] was 7.00 to 8.00.

With `CCNc1cc2c(cn1)c(-c1cnn(C)c1)nn2[C@H]1CC[C@@H](Oc2nccc(C(F)(F)F)c2F)CC1` [Example 198, N-ethyl-1-((1s,4s)-4-((3-fluoro-4-(trifluoromethyl)pyridin-2-yl)oxy)cyclohexyl)-3-(1-methyl-1H-pyrazol-4-yl)-1H-pyrazolo[4,3-c]pyridin-6-amine] the pIC50 [1] was over 8.00, the pIC50 [2] was over 8.00 and the pIC50 [3] was 7.00 to 8.00.

`CCNc1cc2c(cn1)c(-c1cnn(C[C@H](O)C(C)(C)O)c1)nn2[C@H]1CC[C@@H](Oc2nccc(C(F)(F)F)c2F)CC1` [Example 236, (S)-1-(4-(6-(ethylamino)-1-((1s,4R)-4-((3-fluoro-4-(trifluoromethyl)pyridin-2-yl)oxy)cyclohexyl)-1H-pyrazolo[4,3-c]pyridin-3-yl)-1H-pyrazol-1-yl)-3-methylbutane-2,3-diol] gave a pIC50 [1] of over 8.00, a pIC50 [2] of over 8.00 and a pIC50 [3] of 7.00 to 8.00.

`CCNc1cc2c(cn1)c(-c1cnn(C)c1)nn2[C@H]1CC[C@@H](Oc2cccn(C)c2=O)CC1` [Example 109, 3-(((1s,4s)-4-(6-(ethylamino)-3-(1-methyl-1H-pyrazol-4-yl)-1H-pyrazolo[4,3-c]pyridin-1-yl)cyclohexyl)oxy)-1-methylpyridin-2(1H)-one] showed a pIC50 [1] of 5.00 to 6.00 and a pIC50 [3] of 5.00 to 6.00.

With `CCNc1cc2c(cn1)c(-c1ccn(CCN3CCOCC3)n1)nn2[C@H]1CC[C@@H](Oc2ccc(=O)n(C)n2)CC1` [Example 101, 6-(((1s,4s)-4-(6-(ethylamino)-3-(1-(2-morpholinoethyl)-1H-pyrazol-3-yl)-1H-pyrazolo[4,3-c]pyridin-1-yl)cyclohexyl)oxy)-2-methylpyridazin-3(2H)-one] the pIC50 [1] was 5.00 to 6.00 and the pIC50 [3] was 5.00 to 6.00.
